Experimental data as given in PMC11755020 (Computational and Structural Biotechnology Journal, 2024).

Molecular target: T1, HNF4α (hepatocyte nuclear factor 4α) (Homo sapiens, UniProt P41235)
T1 sequence (P41235 147-377 limits assumed): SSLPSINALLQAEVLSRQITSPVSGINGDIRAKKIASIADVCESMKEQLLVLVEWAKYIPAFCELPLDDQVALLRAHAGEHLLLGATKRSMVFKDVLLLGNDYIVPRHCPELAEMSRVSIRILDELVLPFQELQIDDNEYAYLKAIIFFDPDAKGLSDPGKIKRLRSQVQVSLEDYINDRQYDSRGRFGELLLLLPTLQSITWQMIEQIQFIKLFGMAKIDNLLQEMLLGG
Assay: microscale thermophoresis
Type: binding

| Kd | SMILES |
| --- | --- |
| 3110 µM | O=C(/C=C/c1ccc(O)c(O)c1)O[C@@H]1C[C@@](OC(=O)/C=C/c2ccc(O)c(O)c2)(C(=O)O)C[C@@H](O)[C@@H]1O [cynarin] |
| 34.9 µM | O=C(/C=C/c1ccc(O)c(O)c1)O[C@H](Cc1ccc(O)c(O)c1)C(=O)O [rosmarinic acid] |
| 78.2 µM | COc1c(/C=C/C(=O)c2ccc(O)cc2)ccc(O)c1O [licochalcone B] |
